According to patent publication US20260356809A1 (The United States of America, as represented by the …, priority 2022, published 2026):
Where two headings read alike, the source gives them in different places.

Columns and labels:
[1] = target: T1, human D2L receptor (Homo sapiens, UniProt P14416); assay: D2R radioligand binding, [3H]N-methylspiperone, HEK293 membranes
T1 construct: expressed in transfected cells

[2] = target: T2, human D3 receptor (Homo sapiens, UniProt P35462); assay: D3R radioligand binding, [3H]N-methylspiperone, HEK293 membranes; details: for D2R Ki / D3R Ki: ratio of Ki values
T2 construct: expressed in transfected cells

[3] = target: T3, 5-HT2B (Homo sapiens, UniProt P41595); assay: 5-HT2B IP-1, agonist; format: cell-based; details: agonist mode
[4] = target: T3, 5-HT2B; assay: 5-HT2B IP-1, antagonist; format: cell-based
[5] = target: T4, D2LR (Homo sapiens, UniProt P14416); format: cell-based; details: miniG recruitment assay
T4 construct: expressed in transfected cells; host or cells: HEK 293T, transient

[6] = test system: cocaine self-administration in rats; details: general knowledge statement; cited from earlier work
[7] = [3H]N-methylspiperone, mean ± SEM of at least three experiments, read-out: D3R Ki ± SEM

T1 sequence (P14416 whole entry): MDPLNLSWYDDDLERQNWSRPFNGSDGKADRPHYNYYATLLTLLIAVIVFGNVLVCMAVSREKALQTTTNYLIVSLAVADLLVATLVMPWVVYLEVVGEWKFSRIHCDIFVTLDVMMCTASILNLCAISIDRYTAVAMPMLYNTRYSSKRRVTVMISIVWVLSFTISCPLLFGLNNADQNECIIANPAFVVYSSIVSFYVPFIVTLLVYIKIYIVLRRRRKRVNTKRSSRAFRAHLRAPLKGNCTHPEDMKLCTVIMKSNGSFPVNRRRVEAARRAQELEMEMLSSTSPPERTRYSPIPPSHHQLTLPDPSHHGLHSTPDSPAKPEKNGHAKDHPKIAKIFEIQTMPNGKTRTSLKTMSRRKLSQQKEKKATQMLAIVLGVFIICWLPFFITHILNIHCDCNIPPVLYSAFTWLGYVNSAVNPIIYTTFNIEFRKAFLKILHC
T2 sequence (P35462 whole entry): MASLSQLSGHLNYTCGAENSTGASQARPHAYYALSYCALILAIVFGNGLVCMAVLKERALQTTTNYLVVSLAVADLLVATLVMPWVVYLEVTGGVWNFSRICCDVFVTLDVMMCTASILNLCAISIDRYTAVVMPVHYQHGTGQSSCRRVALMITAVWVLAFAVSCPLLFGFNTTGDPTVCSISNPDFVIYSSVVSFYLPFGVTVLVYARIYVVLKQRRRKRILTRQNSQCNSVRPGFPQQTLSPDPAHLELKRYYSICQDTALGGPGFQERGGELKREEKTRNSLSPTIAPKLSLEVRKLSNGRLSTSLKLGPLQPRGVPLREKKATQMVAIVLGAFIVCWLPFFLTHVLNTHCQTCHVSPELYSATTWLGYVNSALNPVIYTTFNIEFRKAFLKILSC
T3 sequence (P41595 whole entry, species assumed): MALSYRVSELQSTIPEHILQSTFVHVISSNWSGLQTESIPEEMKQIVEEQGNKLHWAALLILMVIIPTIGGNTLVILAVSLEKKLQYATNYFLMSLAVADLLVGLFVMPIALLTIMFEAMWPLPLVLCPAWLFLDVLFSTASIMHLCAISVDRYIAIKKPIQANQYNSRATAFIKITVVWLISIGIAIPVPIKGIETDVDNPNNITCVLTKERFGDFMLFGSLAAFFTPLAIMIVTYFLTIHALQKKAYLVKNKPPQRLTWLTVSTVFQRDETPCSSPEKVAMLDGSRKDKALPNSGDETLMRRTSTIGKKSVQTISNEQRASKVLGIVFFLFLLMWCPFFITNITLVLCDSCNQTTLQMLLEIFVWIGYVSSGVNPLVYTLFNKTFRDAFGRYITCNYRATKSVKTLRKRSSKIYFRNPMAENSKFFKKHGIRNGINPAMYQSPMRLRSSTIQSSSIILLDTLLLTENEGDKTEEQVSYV
T4 sequence (P14416 whole entry): as the sequence (P14416 whole entry) above

Compound | Ki [2] | D2R Ki / D3R Ki ([2]; [3H]N-methylspiperone) | Ki ([1]; read-out: D2R Ki ± SEM) | Ki [2, 7] | other results
COc1ccccc1N1CCN(CC[C@H]2CC[C@H](NC(=O)N(C)C)CC2)CC1 [Compound 6f, 3-(trans-4-(2-(4-(2-Methoxyphenyl)piperazin-1-yl)ethyl)cyclohexyl)-1,1-dimethylurea] | 1.01 ± 0.32 nM | 6.0 |  |  | Ki [1]: 6.07 ± 2.32 nM
CN(C)C(=O)N[C@H]1CC[C@H](CCN2CCN(c3ccc(Cl)cc3)CC2)CC1 [Compound 6g, 3-(trans-4-(2-(4-(4-Chlorophenyl)piperazin-1-yl)ethyl)cyclohexyl)-1,1-dimethylurea] | 33.8 ± 0.8 nM |  |  |  | Ki [1]: 337 ± 24 nM
CN(C)C(=O)N[C@H]1CC[C@H](CCN2CCN(c3ncccn3)CC2)CC1 [Compound 6h, 1,1-Dimethyl-3-(trans-4-(2-(4-(pyrimidin-2-yl)piperazin-1-yl)ethyl)cyclohexyl)urea] | 600 ± 136 nM | 5.7 |  |  | Ki [1]: 3440 ± 464 nM
CN(C)C(=O)N[C@H]1CC[C@H](CCN2CCN(c3nsc4ccccc34)CC2)CC1 [Compound 6i, 3-(trans-4-(2-(4-(Benzo[d]isothiazol-3-yl)piperazin-1-yl)ethyl)cyclohexyl)-1,1-dimethylurea] | 4.17 ± 0.33 nM | 1.1 |  |  | Ki [1]: 4.43 ± 0.38 nM
CN(C)C(=O)N[C@H]1CC[C@H](CCN2CCC(c3noc4cc(F)ccc34)CC2)CC1 [Compound 6j, 3-(trans-4-(2-(4-(6-Fluorobenzo[d]isoxazol-3-yl)piperidin-1-yl)ethyl)cyclohexyl)-1,1-dimethylurea] | 5.37 ± 0.72 nM | 1.0 |  |  | Ki [1]: 5.26 ± 1.56 nM
CN(C)C(=O)N[C@H]1CC[C@H](CCN2CCN(c3ccc4oc(C(N)=O)cc4c3)CC2)CC1 [Compound 6k, 5-(4-(2-(trans-4-(3,3-Dimethylureido)cyclohexyl)ethyl)piperazin-1-yl)benzofuran-2-carboxamide] | 1460 ± 270 nM | 41.9 |  |  | Ki [1]: 61100 ± 35100 nM
CCc1cccc(N2CCN(CC[C@H]3CC[C@H](NC(=O)c4cc5ccccc5[nH]4)CC3)CC2)c1Cl [Compound 10b, N-(trans-4-(2-(4-(2-Chloro-3-ethylphenyl)piperazin-1-yl)ethyl)cyclohexyl)indole-2-carboxamide] |  |  | 7.8 ± 1.9 nM |  | 
COCCC(=O)N[C@H]1CC[C@H](CCN2CCN(c3cccc(C(F)(F)F)n3)CC2)CC1 [Compound 13d] |  |  |  |  | 5-HT2B IP-1 Emax ± SEM [3]: 6.66 ± 0.91%; EC50 ([3]; read-out: 5-HT2B IP-1 EC50 ± SEM): 37 ± 10 nM; 5-HT2B IP-1 Emax ± SEM [4]: 95.6 ± 2.0%; IC50 ([4]; read-out: 5-HT2B IP-1 IC50 ± SEM): 460 ± 100 nM
NCCc1ccc(O)c(O)c1 [Dopamine, dopamine, reference compound] |  |  |  |  | D2R activity in words, miniG assay [5]: equivalent maximal responses
O=c1[nH]c2ccccc2n1C1CCN(CCCC(c2ccc(F)cc2)c2ccc(F)cc2)CC1 [pimozide] |  |  |  |  | biphasic effects on cocaine self-administration [6]: biphasic effects
(+)-butaclamol |  |  |  |  | biphasic effects on cocaine self-administration [6]: biphasic effects

Continued, in another order:

Ki [2] | D2R Ki / D3R Ki ([2]; [3H]N-methylspiperone) | Ki ([1]; read-out: D2R Ki ± SEM) | Ki [2, 7] | Compound | other results
 | 11.5 | 3.72 ± 0.02 nM | 0.323 ± 0.075 nM | COC(=O)N[C@H]1CC[C@H](CCN2CCN(c3cccc(Cl)c3Cl)CC2)CC1 [Compound 14a, Methyl (trans-4-(2-(4-(2,3-dichlorophenyl)piperazin-1-yl)ethyl)cyclohexyl)carbamate] | 
 |  | 8.4 ± 2.43 nM | 0.965 ± 0.129 nM | CCOC(=O)N[C@H]1CC[C@H](CCN2CCN(c3cccc(Cl)c3Cl)CC2)CC1 [Compound 14b, Ethyl (trans-4-(2-(4-(2,3-dichlorophenyl)piperazin-1-yl)ethyl)cyclohexyl)carbamate] | 
 | 14.4 | 25 ± 2.1 nM | 1.74 ± 0.17 nM | CCCOC(=O)N[C@H]1CC[C@H](CCN2CCN(c3cccc(Cl)c3Cl)CC2)CC1 [Compound 14c, Propyl (trans-4-(2-(4-(2,3-dichlorophenyl)piperazin-1-yl)ethyl)cyclohexyl)carbamate] | 
≤ 1 nM | 28.6 | 7.67 ± 0.69 nM | 0.268 ± 0.065 nM | COCC(=O)N[C@H]1CC[C@H](CCN2CCN(c3cccc(Cl)c3Cl)CC2)CC1 [Compound 14d, N-(trans-4-(2-(4-(2,3-Dichlorophenyl)piperazin-1-yl)ethyl)cyclohexyl)-2-methoxyacetamide] | 
≤ 1 nM |  | 41.3 ± 3.9 nM | 1.06 ± 0.32 nM | CCOCC(=O)N[C@H]1CC[C@H](CCN2CCN(c3cccc(Cl)c3Cl)CC2)CC1 [Compound 14e, N-(trans-4-(2-(4-(2,3-Dichlorophenyl)piperazin-1-yl)ethyl)cyclohexyl)-2-ethoxyacetamide] | 
 | 18.9 | 21.7 ± 3.8 nM | 1.15 ± 0.29 nM | COCCCC(=O)N[C@H]1CC[C@H](CCN2CCN(c3cccc(Cl)c3Cl)CC2)CC1 [Compound 14f, N-(trans-4-(2-(4-(2,3-Dichlorophenyl)piperazin-1-yl)ethyl)cyclohexyl)-4-methoxybutanamide] | 
 |  | 3.72 ± 0.46 nM | 0.398 ± 0.084 nM | CN(C)CC(=O)N[C@H]1CC[C@H](CCN2CCN(c3cccc(Cl)c3Cl)CC2)CC1 [Compound 14g, N-(trans-4-(2-(4-(2,3-dichlorophenyl)piperazin-1-yl)ethyl)cyclohexyl)-2-(dimethylamino)acetamide] | 
 | 13.6 | 6.06 ± 1.07 nM | 0.447 ± 0.119 nM | CCC(=O)N[C@H]1CC[C@H](CCN2CCN(c3cccc(Cl)c3Cl)CC2)CC1 [Compound 14i, N-(trans-4-(2-(4-(2,3-Dichlorophenyl)piperazin-1-yl)ethyl)cyclohexyl)propionamide] | 
 | 29.3 | 25.6 ± 5.7 nM | 0.875 ± 0.178 nM | CCCC(=O)N[C@H]1CC[C@H](CCN2CCN(c3cccc(Cl)c3Cl)CC2)CC1 [Compound 14j, N-(trans-4-(2-(4-(2,3-Dichlorophenyl)piperazin-1-yl)ethyl)cyclohexyl)butyramide] | 
 | 21.7 | 51.5 ± 18.6 nM | 2.37 ± 0.6 nM | CCCCC(=O)N[C@H]1CC[C@H](CCN2CCN(c3cccc(Cl)c3Cl)CC2)CC1 [Compound 14k, N-(trans-4-(2-(4-(2,3-Dichlorophenyl)piperazin-1-yl)ethyl)cyclohexyl)pentanamide] | 
≤ 1 nM |  | 5.46 ± 2.14 nM | 0.248 ± 0.101 nM | O=C1OCCCN1[C@H]1CC[C@H](CCN2CCN(c3cccc(Cl)c3Cl)CC2)CC1 [Compound 34b, 3-(trans-4-(2-(4-(2,3-Dichlorophenyl)piperazin-1-yl)ethyl)cyclohexyl)-1,3-oxazinan-2-one] | 
 | 12.9 | 5.66 ± 0.89 nM | 0.438 ± 0.053 nM | O=C1NCCN1[C@H]1CC[C@H](CCN2CCN(c3cccc(Cl)c3Cl)CC2)CC1 [Compound 35a, 1-(trans-4-(2-(4-(2,3-Dichlorophenyl)piperazin-1-yl)ethyl)cyclohexyl)imidazolidin-2-one] | 
 |  | 19 ± 4.7 nM | 2.97 ± 0.85 nM | O=C1NCCCN1[C@H]1CC[C@H](CCN2CCN(c3cccc(Cl)c3Cl)CC2)CC1 [Compound 35b, 1-(trans-4-(2-(4-(2,3-Dichlorophenyl)piperazin-1-yl)ethyl)cyclohexyl)tetrahydropyrimidin-2(1H)-one] | 
 |  | 4.49 ± 0.78 nM | 0.537 ± 0.167 nM | O=C1CCCN1[C@H]1CC[C@H](CCN2CCN(c3cccc(Cl)c3Cl)CC2)CC1 [Compound 36a, 1-(trans-4-(2-(4-(2,3-Dichlorophenyl)piperazin-1-yl)ethyl)cyclohexyl)100yrrolidine-2-one] | 
 |  | 9.89 ± 2.77 nM | 1.74 ± 0.46 nM | O=C1CCCCN1[C@H]1CC[C@H](CCN2CCN(c3cccc(Cl)c3Cl)CC2)CC1 [Compound 36b, 1-(trans-4-(2-(4-(2,3-Dichlorophenyl)piperazin-1-yl)ethyl)cyclohexyl)piperidin-2-one] | 
